{
  "source": "paper PMC9344462",
  "about": "(Journal of Medicinal Chemistry, 2022)",
  "key": {"[1]": {"target": "PknG (kinase and rubredoxin domains) (Mycobacterium tuberculosis, UniProt P9WI73)", "sequence (P9WI73 74-405)": "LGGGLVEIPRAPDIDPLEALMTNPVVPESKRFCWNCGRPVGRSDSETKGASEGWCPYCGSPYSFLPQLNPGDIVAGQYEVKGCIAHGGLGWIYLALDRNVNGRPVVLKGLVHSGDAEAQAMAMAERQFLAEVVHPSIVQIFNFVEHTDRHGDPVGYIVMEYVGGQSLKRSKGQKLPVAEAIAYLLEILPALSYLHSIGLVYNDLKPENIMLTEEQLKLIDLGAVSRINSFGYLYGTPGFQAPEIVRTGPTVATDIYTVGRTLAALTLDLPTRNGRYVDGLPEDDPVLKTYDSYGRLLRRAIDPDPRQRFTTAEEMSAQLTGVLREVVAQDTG", "assay": "Intrinsic tryptophan fluorescence quenching", "type": "binding"}, "Mtb H37Rv [2]": {"test_system": "Mtb H37Rv", "conditions": "previous results ref 8; cited from earlier work"}, "[3]": {"test_system": "THP-1-derived macrophages"}, "Mtb H37Rv [4]": {"test_system": "Mtb H37Rv", "type": "cell-based, Mycobacterium tuberculosis H37Rv"}},
  "note": "Read-outs that look alike come from different tables or passages of the source.",
  "data": [
    {"smiles": "NC(=O)c1c(N)c(C(=O)c2ccc(Cl)c(Cl)c2)n2ccccc12", "note": "[B4]", "values": [
      {"measurement": "Kd", "setting": "[1]", "result": 13, "unit": "µM"}
    ]},
    {"smiles": "NC(=O)c1c(NC(=O)C2CC2)sc2c1CCCC2", "note": "[AX20017]", "values": [
      {"measurement": "inhibitory activity on intracellular survival of Mtb within macrophage cells", "setting": "Mtb H37Rv [2]", "result": "very similar inhibitory activity"}
    ]},
    {"smiles": "NC(=O)c1c(N)c(C(=O)c2ccc(F)cc2)n2ccccc12", "note": "[B1]", "values": [
      {"measurement": "effect on cell viability", "setting": "[3]", "result": "none of the compounds showed adverse effects"},
      {"measurement": "Mtb H37Rv intracellular survival", "setting": "Mtb H37Rv [4]", "result": "significant decrease"}
    ]},
    {"smiles": "NC(=O)c1c(N)c(C(=O)c2cccs2)n2ccccc12", "note": "[B3]", "values": [
      {"measurement": "Kd", "setting": "[1]", "result": 3.6, "unit": "µM"}
    ]},
    {"smiles": "CC(C)c1ccc(C(=O)c2c(N)c(C(N)=O)c3ccccn23)cc1", "note": "[T1]", "values": [
      {"measurement": "effect on cell viability", "setting": "[3]; 10 μM, 3, 24 and 48 h", "result": "none of the compounds showed adverse effects"},
      {"measurement": "Mtb H37Rv intracellular survival", "setting": "Mtb H37Rv [4]; 1 and 10 μM, 24 h and 48 h, […]", "result": "significant decrease"}
    ]}
  ]
}
